# Results from US8022178B2, “Modified self-assembling peptides” (Massachusetts Institute of Technology, priority 2006, dated 2011).
# Entries after “also recorded” stand apart in the source; their conditions may differ.
# How the values were obtained:
# [1] = Isoelectric plot and rheological data when 0.1 N NaOH is added (pH of gel formation); assay type: physicochemical; conditions: 1% solution, 0.1 N NaOH solution added
# Description: At the point of pH 3.6, the viscous solution become gel and has a higher G′ (stiffness), G″ (viscosity) value. When the pH is increased, the gel breaks into small pieces and it becomes a solution with precipitated peptides. At lower pH, the peptide forms fibers and the fibers make the solution viscous. When the pH becomes higher, and approaches the pI value, the peptide fibers lose their charge and aggregate to form gel. The same gel formation happens when the peptide charge is screened by salts in a salt-containing solution (e.g., a solution containing a gellation agent or an iso-osmotic solute). Once the gel is formed, the fiber structure is broken into pieces to form a precipitate particle.
# (§1) A comparison of the pH dependent property of 1% Ac(RADA)4GGFHRRIKA CONH2 (SEQ ID NO. 6) solution (Code: FHR), self assembling peptide sequence was compared with the heparin-binding motif. FIG. 12 depicts the isoelectric plot and corresponding rheological data when 0.1 N NaOH solution is added to FHR solution to adjust pH. The net charge of the peptide molecule is kept ≧2 when pH<10. Until at point of pH 5.7, the solution keeps viscous state. This movement of pH point where the peptide solution become gel is controlled by the charge induced by the additional motif to the self-assembling peptide. The induced charge prevents the peptide to aggregate to form the gel. Thus, the cell and the peptide solution can be mixed near neutral pH. After complete mixing, the gel formation can be made by adding salt containing solution (e.g., a solution containing a gellation agent or an iso-osmotic solute).
# FIG. 18 depicts the isoelectric plot and Rheological data of PFS 1% solution when 0.1 N NaOH solution is added. 1% Ac(RADA)4GGSKPPGTSS-CONH2 solution (Code: SKP, peptide sequence: SEQ ID NO. 7) is a hydrogel composed of peptides with a self-assembling sequence and positively-charged functional motif. Although the pI value of the peptide is 9.74 and it keeps positive charge at near pH 7 range, the gel is formed at the point of pH 4.5. […]
# [2] = pI and charge of the self-assembling peptide; assay type: physicochemical
# Experimental: as §1
# FIG. 18 depicts the isoelectric plot and Rheological data of PFS 1% solution when 0.1 N NaOH solution is added. 1% Ac(RADA)4GGSKPPGTSS-CONH2 solution (Code: SKP, peptide sequence: SEQ ID NO. 7) is a hydrogel composed of peptides with a self-assembling sequence and positively-charged functional motif. Although the pI value of the peptide is 9.74 and it keeps positive charge at near pH 7 range, the gel is formed at the point of pH 4.5. This is because the charge of the molecule around pH 7 range is +1 and smaller than the charge of Ac(RADA)4GGFHRRIKA CONH2 (FHR) (bigger than 3). The charge of the whole peptide should be larger than 2 when the cell is mixed. This pH should be somewhere in 6-8 in order to minimize the damage to the cells. As this sequence is heparin-binding motif, the fiber can attach to the heparin molecule which is abundant at cell surface. This heparin-binding motif provides a specific anchor to the cell. As described in Example 1, this binding synergistically works with the other binding motif (e.g., RGD) to induce biological stimuli for cell proliferation and differentiation. This effect is not limited to the sequences previously describe, but the other motifs, including -XBBXBX- and -XBBBXXBX- sequences. […]
# [3] = test system: HUVEC (human umbilical vein endothelial cells); assay: HUVEC cell attachment on hydrogels based on various self-assembling sequence; conditions: HUVEC cultured for three days
# Experimental: Cell attachment and viability of the hydrogels were evaluated using HUVEC (human umbilical vein endothelial cells). The peptide solutions shown in Table 22 were loaded in the culture inserts (10 mm diameter, Millicell-CM, Millipore) and gels were formed using cell culture medium (EGM-2-MV, Camblex). HUVEC were plated at 8×10^4 cells on the inserts and cultured for three days.
# This implies that functionalization of the self-assembling peptide is useful regardless of the basic repetitive sequence, while the properties of hydrogel can be controlled by altering basic repetitive sequence in amino acid and length.
# [4] = target: bFGF (Homo sapiens, UniProt P09038); assay: bFGF retention in peptide matrix (ELISA); conditions: bFGF 175 ng/insert loaded after gelation; during PBS washing and culturing; FIG. 19
# Experimental: (§2) The effect of protein retention and delivery using the self-assembling peptide were studied (Table 11). bFGF was used as a model protein. The retention of bFGF in different peptide matrix in different charge condition was measured by ELISA after washing by PBS. After washing out unbound bFGF, the effect of protein retention to self-assembling peptide matrix were evaluated the using cell culturing of HUVEC (human umbilical vein endothelial cells).
# The peptide solutions provided in Table 12 were loaded in the culture inserts (10 mm diameter, Millicell-CM, Millipore) and gels were formed using PBS. After gelation, bFGF solution in PBS was added inside and outside and plated for overnight. bFGF was loaded at 175 ng/insert. After loading bFGF, the PBS inside and outside the inserts were exchanged three times (2 hours, 9 hours and 12 hours) to remove unbound bFGF (Washing). After the washing, the PBS was exchanged to the cell culture medium (EGM-2-MV, Camblex) without attached growth factor (bFGF, VEGF and EGF) and placed more than a day (such that the fluid contained in the gel is exchanged from PBS to cell culture medium), then HUVEC (human umbilical vein endothelial cells) were plated at 7.5×10^4 cells on the inserts and cultured for three days.
# Cell culturing using cell culture medium (EGM-2-MV) was used without attached growth factor on peptide matrix as negative control. Cell culturing using cell culture medium (EGM-2-MV) was used with attached growth factor on peptide matrix without loading growth factor as positive control. The bFGF concentration in washing buffer (PBS) and cell culture medium (EGM-2-MV) was measured using ELISA. The washing buffer and cell culture medium were exchanged at each measurement period (2 hours, 9 hours and 12 hours for washing, and at the cell seeding (D0), Day 1 (D 1), Day 2 (D2) and Day 3 (D3)). Growth factor retention rate was calculated by accumulating the amount of measured bFGF.
# [5] = test system: HUVEC (human umbilical vein endothelial cells); assay: HUVEC culture on bFGF loaded peptide matrix; assay type: cell-based; conditions: Day 3; bFGF loaded matrix compared to negative and positive control; FIG. 21
# Experimental: as §2
# The peptide solutions provided in Table 12 were loaded in the culture inserts (10 mm diameter, Millicell-CM, Millipore) and gels were formed using PBS. After gelation, bFGF solution in PBS was added inside and outside and plated for overnight. bFGF was loaded at 175 ng/insert. After loading bFGF, the PBS inside and outside the inserts were exchanged three times (2 hours, 9 hours and 12 hours) to remove unbound bFGF (Washing). […]
# Cell culturing using cell culture medium (EGM-2-MV) was used without attached growth factor on peptide matrix as negative control. […] The bFGF concentration in washing buffer (PBS) and cell culture medium (EGM-2-MV) was measured using ELISA. […] Growth factor retention rate was calculated by accumulating the amount of measured bFGF. […]
# [6] = Gel stiffness of hydrogel; assay type: physicochemical; conditions: compared to RAD
# [7] = test system: MC3T3-E1 cells; assay: Effect of RAD:DSG mixture ratio on cell proliferation (DNA contents, 7 days); assay type: cell-based, mouse; conditions: RAD:DSG mixture ratio varied from 100:0 to 0:100, FIG. 8
# Experimental: Effect of a mixture of self-assembling sequence peptide (e.g., 1% RAD16-1 peptide solution) and a functionalized peptide (SEQ ID NO. 7) with self-assembling sequence (RADA) (SEQ ID NO. 67) and functional motif (RGD), was evaluated (Tables 8-9) SEQ ID NO. 7 has an additional Glycine at the N-terminus (compared to SEQ ID NO. 4), which causes an increase in hydrophobicity of the hydrogel. Biologically SEQ ID NO. 4 and SEQ ID NO. 7 are considered to have similar effects.
# Hydrogels were prepared so that the mixture ratio of RAD and DSG was varied from 100:0 to 0:100 (FIG. 8). Cells were prepared and seeded as described in Example 1. Cells were cultured on hydrogels for 7 days. Cell proliferation was evaluated using DNA contents in the hydrogel as same as Example 1.
# [8] = test system: MC3T3-E1 cells; assay: Confocal microscopy of cells cultured on different functional peptide (DSG) concentration; assay type: cell-based, mouse
# [9] = test system: chondrocytes; conditions: encapsulated chondrocytes (Kisiday 2002); cited from earlier work
# [10] = neutral pH range (Caplan 2002a); cited from earlier work
# [11] = neutral pH range (Caplan 2002a); cited from earlier work; remark: listed apart in the source
# [12] = test system: Mouse preosteoblast cell line (MC3T3-E1); assay: MC3T3-E1 cell proliferation on hydrogels (DNA content, PicoGreen); assay type: cell-based; conditions: pre-osteoblast; when it becomes hydrogel; no data shown
# Experimental: Mouse preosteoblast cell line (MC3T3-E1) was used to compare the proliferation and differentiation effects of the motifs with RAD16-1 and Collagen-I hydrogels as controls. The proliferation was measured by DNA contents and the differentiation effects were evaluated using Alkaline phosphatase (ALP) activity and secreted Osteocalcin. Alkaline phosphatase is known to be differentiation marker of osteoblast in earlier stage. Secreted Osteocalcin is known to be differentiation marker of osteoblast in later stage and its activity is correlated with the bone mineralization.
# 1% RAD16-I solution [self-assembling peptide solution] was obtained as RAD16-I (Puramatrix™, 3DM Inc./BD Bioscience). The functionalized peptides of Table 2 were dissolved in water at final concentration of 1% (v/w). The functionalized peptide solutions were then mixed with 1% RAD16-I solution at a ratio of 1:1 (Table 4). Each peptide solution was loaded in the Culture plate inserts (10 mm diameter, Millicell-CM, Millipore). […]
# Cell proliferation was evaluated using DNA contents in the hydrogel using PicoGreen dsDNA Kits (Molecular Probes). ALP activity was quantitatively measured from cell lysis using Alkaline Phosphatase Fluorescence Assay Kit (Sigma). Osteocalcin was measured from cell culture medium using Mouse Osteocalcin EIA Kit (Biomedical Technologies Inc.).
# [13] = test system: HUVEC (human umbilical vein endothelial cells); assay: HUVEC cultured 2-dimensionally on hydrogels: cell attachment and morphology; assay type: cell-based; parameters: key to Capillary like morphology: weak: +; medium: ++; strong: +++; very strong: ++++; conditions: HUVEC cultured on hydrogels
# Experimental: The effect of functional modified peptide matrix to HUVEC (human umbilical vein endothelial cells) was evaluated by culturing cells 2-dimensionally on the gel.
# The peptide solutions shown in Table 19 were loaded in the culture inserts (10 mm diameter, Millicell-CM, Millipore) and gels were formed using cell culture medium (EGM-2-MV, Camblex). Collagen-1 and Matrigel were used as control matrices. HUVEC (human umbilical vein endothelial cells) were plated at 8×10^4 cells on the inserts and cultured up to 7 Days.
# bFGF, sequence (P09038 143-288, species assumed): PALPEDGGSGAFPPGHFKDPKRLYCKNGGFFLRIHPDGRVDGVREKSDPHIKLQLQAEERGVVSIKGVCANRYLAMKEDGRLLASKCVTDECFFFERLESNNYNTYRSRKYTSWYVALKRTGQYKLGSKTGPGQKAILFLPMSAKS
substance,measurement,setting,value
Ac(RADA)4GGSKPPGTSS-CONH2 (Ac-RADARADARADARADAGGSKPPGTSS-NH2) [Bone marrow homing; SKP = 1% solution],pH at which the viscous peptide solution becomes gel,[1],4.5
same,pI,[2],9.74
same,charge of the molecule around pH 7 range,[2]; around pH 7,+1
Ac-IEIKIEIKI-NH2 [reference compound],Cell attachment,[3],++ (++: 20-50%)
AcIEIKIEIKIGGPRGSYRGDS-CONH2 [EPRG],Cell attachment,[3],++++ (++++: near confluence(>70%))
AcFKFQFKFQFKFQGPRGDSGYRGDS-CONH2 [KPRG],Cell attachment,[3],++++ (++++: near confluence(>70%))
"Ac(RADA)4GGDGRGDSVAYG-CONH2 (Ac-RADARADARADARADAGGDGRGDSVAYG-NH2) [SEQ ID NO. 5, Cell adhesion domain (Osteopontin); DGR-2P = 2% solution]",charge,[2],negatively charged
same,pI,[2],"4.78,"
same,bFGF (growth factor) retention rate,[4],"high in the order of KFQ-2P, FHR-2P, RAD-2P then DGR-2P"
same,cell attachment and cell spread,[5],superior
Ac(RADA)4GPRGDSGYRGDSG-CONH2 (Ac-RADARADARADARADAGPRGDSGYRGDSG-NH2) [DSG = 1% solution],gel stiffness,[6],less stiff gel; also recorded: lower stiffness gel
same,Cell proliferation (fluorescence intensity linear to the DNA contents),[7],drop in fluorescence and drop
same,cell location on the peptide matrix,"[8]; DSG ratio 10%, FIG. 9A",stayed on the surface of the peptide matrix
same,cell migration into the matrix,"[8]; DSG ratio 70%, FIG. 9B",up to 300 um
AcNKLDLKLDLKLDL-CONH2 (Ac-KLDLKLDLKLDL-NH2; not fully specified) [KLD12],chondrocyte phenotype and ECM,[9],"retained their morphology and developed a cartilage-like, mechanically functional ECM rich in proteoglycans and type-II collagen"
AcIEIKIEIKIGGPFSSTKT-CONH2 [EPFS],Cell attachment,[3],+ (+: Weak(<20%))
"Ac(FKFQ)3-CONH2 (Ac-FKFQFKFQFKFQ-NH2) [FKF = 1% solution; FKF-2P = 2% solution, reference compound]",charge in neutral pH range,[10],positively charged
same,Cell attachment,[3],++ (++: 20-50%)
same,charge,[2],positively charged
same,pI,[2],"10.30,"
same,phase of peptide solution in neutral pH range,[11],stays solution phase; also recorded: stays in solution
same,bFGF (growth factor) retention rate,[4],"high in the order of KFQ-2P, FHR-2P, RAD-2P then DGR-2P"
same,cell proliferation on hydrogel,[12],supports cell proliferation
AcIEIKIEIKIGGSKPPGTS-CONH2 [ESKP],Cell attachment,[3],+ (+: Weak(<20%))
Ac(RADA)4GGPFSSTKT-CONH2 (Ac-RADARADARADARADAGGPFSSTKT-NH2) [Bone marrow homing; PFS = 1% peptide solution],Capillary like morphology,[13],+
same,Cell attachment,[13],++ (++: 20-50%)
